Assay [1] can be described thus: Light fastness of magenta ink jet prints on stabilizer-treated Konica QP paper, 100% print density (Example 5). Conditions: HP DeskJet 970 Cxi, stabilizer 650-700 mg/m^2 on Konica QP paper, office fluorescent lighting, None = 25.73. How it is done:
A resin-coated paper impregnated with inorganic adsorbent particles (Konica QP Photoglossy ink jet paper, Konica Corp.) is purchased. On the ink-receiving layer, a 0.8 wt % methanol solution of the instant compounds is applied in an amount to achieve 650-700 mg/m^2. The paper is allowed to dry under ambient temperature and pressure for 24 hours.
Separately, test patterns (magenta) are printed on the treated sheets using a Hewlett Packard DeskJet 970 Cxi printer at 100% print density. The obtained prints are left to dry at ambient temperature and pressure for 24 hours.
(§1) Color densities and CIEL*a*b coordinates before and after exposure are measured using X-Rite 938 Spectrodensitometer. Exposures are carried out using normal office fluorescent lighting. The change in color is given by Delta E (DE) which is calculated by: DE=[(DL*)^2+(Da*)^2+(Db*)^2]^1/2

Assay [2] is described as follows: Light fastness of cyan, magenta and yellow ink jet prints on stabilizer-treated Konica QP paper, 50% print density (Example 6). Conditions: HP DeskJet 970 Cxi, stabilizer 650-700 mg/m^2, office fluorescent lighting; for DE for magenta after 4 weeks: None = 20.16; for DE for yellow after 4 weeks: None = 4.68. Here is the method:
as §1
A resin-coated paper impregnated with inorganic adsorbent particles (Konica QP Photoglossy ink jet paper, Konica Corp.) is purchased. On the ink-receiving layer, a 0.8 wt % methanol solution of the instant compounds is applied in an amount to achieve 650-700 mg/m^2. The paper is allowed to dry under ambient temperature and pressure for 24 hours. Separately, test patterns (cyan, magenta and yellow) are printed on the treated sheets using a Hewlett Packard DeskJet 970 Cxi printer at 50% print density. The obtained prints are left to dry at ambient temperature and pressure for 24 hours.
Color densities and CIEL*a*b coordinates before and after exposure are measured using X-Rite 938 Spectrodensitometer. Exposures are carried out using normal office fluorescent lighting.

Structures are written as SMILES.

As for `CC(C)(O)CON1C(C)(C)CC(O)CC1(C)C` [Instant Example 2], the “DE for magenta after 4 weeks” value in assay [1] stood at 20.89. The “DE for cyan after 4 weeks” value in assay [2] (cyan, None = 7.29) worked out at 6.64. Also, in assay [2], the “DE for magenta after 4 weeks” value is 16.71 and the “DE for yellow after 4 weeks” value worked out at 2.48.

Regarding `CC(C)(O)CON1C(C)(C)CC(O)CC1(C)C` [Instant Example 1], the “DE for magenta after 4 weeks” value is 18.39 in assay [1] and 17.82 in assay [2]. In addition, the “DE for yellow after 4 weeks” value in assay [2] stood at 1.81.

The values above are taken from patent publication US20060262149A1, “Ink jet ink and recording material” (priority 2005, published 2006).
